Data taken from the supplement of paper PMC10331698.
± gives the standard deviation of the averaged measurements.

What was measured:
Test in all cases: level (log10 ratio to DMSO vehicle control); higher = higher biomarker level / cell amount than vehicle control
[1] = compound: OCC(F)(F)C(F)(F)C(F)(F)C(F)(F)C(F)(F)C(F)(F)CO [1H,1H,8H,8H-Perfluorooctane-1,8-diol] (in DMSO)
Experimental: (§1)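 BioMAP Diversity Plus panel of 12 human primary cell co-culture systems (3C, 4H, LPS, SAg, BT, BF4T, BE3C, CASM3C, HDF3CGF, KF3CT, MyoF, Mphg). Compounds were added 1 h before stimulation and left for 24 h (MyoF 48 h; BT 72 h for soluble read-outs or 6 d for IgG). Biomarkers were read by ELISA, cytotoxicity by SRB, PBMC viability and proliferation by Alamar Blue. Each well value was divided by the mean of 8 DMSO control wells on the same plate and log10 transformed; duplicate blinded samples were tested at 4 concentrations.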

[2] = compound: OCC(F)(F)C(F)(F)C(F)(F)C(F)F [1H,1H,5H-Perfluoropentanol] (in DMSO)
Experimental: as §1

[3] = compound: C=C(C)C(=O)OCCC(F)(F)C(F)(F)C(F)(F)C(F)(F)C(F)(F)C(F)(F)C(F)(F)C(F)(F)F [8:2 Fluorotelomer methacrylate] (in DMSO)
Experimental: as §1

[4] = compound: O=S(=O)(O)C(F)(F)C(F)(F)C(F)(F)C(F)(F)C(F)(F)C(F)(F)C(F)(F)F [Perfluoroheptanesulfonic acid] (in DMSO)
Experimental: as §1

[5] = compound: O=C(O)C(F)(F)C(F)(F)C(F)(F)OC(F)(F)F [Perfluoro(4-methoxybutanoic) acid] (in DMSO)
Experimental: as §1

[6] = compound: C[C@@H]1C[C@H]2[C@@H]3CCC4=CC(=O)C=C[C@]4(C)[C@@]3(F)[C@@H](O)C[C@]2(C)[C@@]1(O)C(=O)COP(=O)(O)O [Dexamethasone sodium phosphate] (in DMSO)
Experimental: as §1

Row | Test System | level (log10) ([1]; 6700 nM) | level (log10) ([1]; 20000 nM) | level (log10) ([1]; 60000 nM) | level (log10) ([2]; 6700 nM) | level (log10) ([2]; 20000 nM) | level (log10) ([2]; 60000 nM) | level (log10) ([3]; 6700 nM) | level (log10) ([3]; 20000 nM) | level (log10) ([4]; 1500 nM) | level (log10) ([4]; 4400 nM) | level (log10) ([4]; 13000 nM) | level (log10) ([4]; 40000 nM) | level (log10) ([5]; 6700 nM) | level (log10) ([5]; 20000 nM) | level (log10) ([5]; 60000 nM) | level (log10) ([6]; 1500 nM) | level (log10) ([6]; 4400 nM) | level (log10) ([6]; 13000 nM) | level (log10) ([6]; 40000 nM)
1 | HDF3CGF:CD106/VCAM-1 | 0.02 ± 0.033 | 0.0365 ± 0.00071 | 0.017 ± 0.052 | -0.0535 ± 0.015 | 0.023 ± 0.048 | 0.0145 ± 0.043 | -0.0105 ± 0.013 | -0.052 ± 0.064 | -0.0245 ± 0.039 | -0.024 ± 0.0042 | -0.0585 ± 0.0064 | -0.101 ± 0.0092 | -0.01 ± 0.027 | -0.0185 ± 0.011 | -0.036 ± 0.059 | -0.006 ± 0.057 | -0.0145 ± 0.035 | -0.054 ± 0.045 | -0.121 ± 0.073
2 | HDF3CGF:CXCL8/IL-8 | 0.002 ± 0.0071 | -0.0015 ± 0.005 | 0.009 ± 0.0099 | -0.0045 ± 0.0064 | -0.002 ± 0.0014 | 0.0095 ± 0.032 | -0.0045 ± 0.0035 | -0.0025 ± 0.023 | 0.0125 ± 0.005 | -0.0115 ± 0.005 | 0.008 ± 0.0042 | 0.0065 ± 0.026 | 0.005 ± 0.0057 | 0.0015 ± 0.00071 | 0.008 | -0.039 ± 0.014 | -0.0725 ± 0.005 | -0.0645 ± 0.018 | -0.0515 ± 0.039
3 | HDF3CGF:CXCL9/MIG | 0.0025 ± 0.0021 | 0.045 ± 0.011 | 0.0245 ± 0.056 | 0.0035 ± 0.0021 | 0.0025 ± 0.025 | -0.0105 ± 0.022 | -0.024 ± 0.0042 | -0.0275 ± 0.016 | -0.0075 ± 0.019 | -0.008 ± 0.013 | -0.0275 ± 0.011 | -0.0505 ± 0.042 | -0.0085 ± 0.0035 | 0.0025 ± 0.0064 | -0.005 ± 0.037 | 0.042 ± 0.037 | 0.067 ± 0.018 | 0.0555 ± 0.029 | 0.0435 ± 0.042
4 | HDF3CGF:CXCL10/IP-10 | -0.01 ± 0.014 | 0.018 ± 0.027 | 0.021 ± 0.034 | -0.0255 ± 0.019 | 0.0095 ± 0.0021 | 0.005 ± 0.018 | -0.029 ± 0.021 | -0.0425 ± 0.005 | 0.0115 ± 0.036 | -0.0195 ± 0.025 | -0.042 ± 0.042 | -0.0805 ± 0.00071 | 0.0145 ± 0.016 | -0.004 ± 0.0042 | -0.004 ± 0.0099 | 0.034 ± 0.025 | 0.0615 ± 0.052 | 0.06 ± 0.057 | 0.009 ± 0.072
5 | HDF3CGF:CXCL11/I-TAC | 0.0145 ± 0.016 | 0.027 ± 0.017 | 0.017 ± 0.013 | -0.0425 ± 0.028 | -0.023 ± 0.093 | 0.004 ± 0.051 | -0.0105 ± 0.025 | -0.0715 ± 0.013 | -0.042 ± 0.054 | -0.001 ± 0.0099 | -0.035 ± 0.018 | -0.0525 ± 0.035 | -0.0035 ± 0.005 | 0.0045 ± 0.0078 | -0.0075 ± 0.0035 | 0.0425 ± 0.00071 | 0.079 ± 0.082 | 0.0905 ± 0.012 | 0.0355 ± 0.087
6 | HDF3CGF:Collagen I | 0.0025 ± 0.012 | 0.025 ± 0.016 | 0.0085 ± 0.035 | -0.0375 ± 0.039 | -0.0305 ± 0.037 | 0.0585 ± 0.021 | -0.0255 ± 0.029 | -0.001 ± 0.083 | -0.0005 ± 0.011 | -0.0075 ± 0.021 | -0.0105 ± 0.025 | 0.021 ± 0.075 | -0.0125 ± 0.015 | 0.0115 ± 0.049 | 0.033 ± 0.061 | -0.0005 ± 0.1 | -0.016 ± 0.047 | -0.0155 ± 0.023 | 0.0075 ± 0.005
7 | HDF3CGF:Collagen III | -0.0175 ± 0.013 | -0.0195 ± 0.0092 | -0.016 ± 0.0057 | -0.0215 ± 0.036 | -0.0135 ± 0.019 | 0.037 ± 0.027 | -0.032 ± 0.042 | -0.0325 ± 0.067 | -0.004 ± 0.018 | -0.0385 ± 0.053 | -0.052 ± 0.05 | -0.0205 ± 0.033 | 0.0075 ± 0.033 | 0 ± 0.0099 | -0.007 ± 0.021 | -0.0625 ± 0.12 | -0.048 ± 0.052 | -0.079 ± 0.05 | -0.0675 ± 0.056
8 | HDF3CGF:EGFR | 0.006 ± 0.023 | 0.001 ± 0.018 | -0.0185 ± 0.026 | -0.0465 ± 0.033 | -0.0025 ± 0.028 | 0.022 ± 0.054 | -0.048 ± 0.071 | 0.0215 ± 0.091 | 0.0085 ± 0.026 | -0.024 ± 0.059 | -0.033 ± 0.057 | 0.0245 ± 0.11 | -0.002 ± 0.072 | 0.02 ± 0.055 | 0.0015 ± 0.053 | -0.0145 ± 0.086 | -0.043 ± 0.071 | -0.039 ± 0.076 | 0.019 ± 0.014
9 | HDF3CGF:M-CSF | 0.0115 ± 0.029 | 0.015 ± 0.0085 | 0.0535 ± 0.054 | -0.0405 ± 0.067 | -0.034 ± 0.071 | -0.0205 ± 0.053 | -0.0295 ± 0.019 | -0.093 ± 0.013 | -0.0025 ± 0.011 | 0.0075 ± 0.019 | 0.003 ± 0.016 | 0 ± 0.034 | -0.0135 ± 0.0035 | -0.0075 ± 0.005 | 0.0115 ± 0.039 | 0.0645 ± 0.053 | 0.049 ± 0.096 | 0.0505 ± 0.094 | 0.0175 ± 0.13
10 | HDF3CGF:MMP-1 | 0.0005 ± 0.013 | -0.0025 ± 0.013 | 0.008 ± 0.0071 | 0.0075 ± 0.005 | 0.007 ± 0.0085 | 0.0105 ± 0.022 | 0.013 ± 0.011 | 0.009 ± 0.018 | 0.0235 ± 0.013 | 0.013 ± 0.014 | 0.0205 ± 0.018 | 0.009 ± 0.024 | -0.0015 ± 0.015 | -0.015 ± 0.0028 | -0.0235 ± 0.0021 | -0.0695 ± 0.011 | -0.065 ± 0.016 | -0.098 ± 0.018 | -0.081 ± 0.042
11 | HDF3CGF:PAI-I | -0.0085 ± 0.0092 | -0.026 ± 0.0057 | -0.023 ± 0.017 | -0.111 ± 0.12 | -0.047 ± 0.16 | -0.0365 ± 0.096 | -0.0305 ± 0.052 | -0.0635 ± 0.022 | 0.02 ± 0.073 | 0.0135 ± 0.049 | -0.0315 ± 0.046 | -0.0325 ± 0.011 | -0.009 ± 0.0042 | -0.0135 ± 0.0078 | -0.001 ± 0.014 | 0.091 ± 0.011 | 0.0875 ± 0.0035 | 0.072 ± 0.0042 | 0.039 ± 0.0099
12 | HDF3CGF:Proliferation 72hr | -0.04 ± 0.013 | -0.0035 ± 0.026 | -0.102 ± 0.027 | -0.023 ± 0.058 | 0.035 ± 0.024 | 0.0065 ± 0.025 | -0.0395 ± 0.028 | -0.043 ± 0.069 | -0.042 ± 0.088 | -0.02 ± 0.031 | 0.076 ± 0.021 | 0.107 ± 0.0042 | -0.003 ± 0.047 | 0.0295 ± 0.0021 | -0.003 ± 0.031 | 0.0165 ± 0.011 | -0.0255 ± 0.047 | 0.0645 ± 0.015 | 0.095 ± 0.064
13 | HDF3CGF:SRB | -0.043 ± 0.052 | -0.0135 ± 0.056 | -0.0405 ± 0.1 | -0.0275 ± 0.0064 | -0.0025 ± 0.03 | -0.0015 ± 0.037 | -0.021 ± 0.055 | -0.0015 ± 0.046 | -0.042 ± 0.028 | -0.045 ± 0.011 | -0.0065 ± 0.015 | 0.035 ± 0.1 | 0.006 ± 0.0071 | 0.011 ± 0.047 | 0.0125 ± 0.04 | 0.0165 ± 0.0064 | 0.0285 ± 0.025 | 0.0515 ± 0.03 | 0.0415 ± 0.07
